In general, IC50 refers to the concentration that inhibits the measured activity by half.

Active and inactive are the calls of the source. No cut-off for these calls is given here.

Test [1] relates to Protein kinase C eta type (Homo sapiens), P24723 [UNDEFINED MUTATION]. The test can be described thus: Inhibition of recombinant human PKCeta V108L/G109R/L392Q mutant (2 to end residues) assessed as residual activity at 10 uM using ERMRPRKRQGSVRRRV as substrate measured after 40 mins in presence of [gamma33P]ATP by scintillation counting method.
In test [2] the target is Testis-specific serine/threonine-protein kinase 2 (Homo sapiens) (UniProt Q96PF2). The test can be described thus: Inhibition of recombinant full-length human TSSK2 assessed as residual activity at 10 uM using KKKVSRSGLYRSPSMPENLNRPR as substrate measured after 40 mins in presence of [gamma33P]ATP by scintillation counting method.
For test [3], the target named is Tyrosine-protein kinase HCK (Homo sapiens) (UniProt P08631). Nature of the test: Inhibition of recombinant human HCK (230 to 497 residues) assessed as residual activity at 10 uM using Cdc2 peptide as substrate measured after 40 mins in presence of [gamma33P]ATP by scintillation counting method.
Test [4] has as its target Leukocyte tyrosine kinase receptor (Homo sapiens) (UniProt P29376). Nature of the test: Inhibition of recombinant human LTK (450 to end residues) assessed as residual activity at 10 uM using GEEPLYWSFPAKKK as substrate measured after 40 mins in presence of [gamma33P]ATP by scintillation counting method.
Test [5] deals with Ephrin type-A receptor 7 (Homo sapiens) (UniProt Q15375). Nature of the test: Inhibition of recombinant human EphA7 (613 to 909 residues) assessed as residual activity at 10 uM using KTFCGTPEYLAPEVRREPRILSEEEQEMFRDFDYIADWC as substrate measured after 40 mins in presence of [gamma33P]ATP by scintillation counting method.
In test [6] the target is Dual specificity mitogen-activated protein kinase kinase 2 (Homo sapiens) (UniProt P36507). Nature of the test: Inhibition of recombinant full-length human MEK2 assessed as residual activity at 10 uM using MBP as substrate measured after 40 mins in presence of [gamma33P]ATP by scintillation counting method.
The target in test [7] is Mitogen-activated protein kinase kinase kinase 10 (Homo sapiens) (UniProt Q02779). Nature of the test: Inhibition of recombinant human MLK2 (1 to 449 residues) assessed as residual activity at 10 uM using myelin basic protein as substrate measured after 40 mins in presence of [gamma33P]ATP by scintillation counting method.
Test [8] deals with HCT-116. Nature of the test: Induction of apoptosis in human HCT116 cells assessed as early apoptotic cells at 50 nM measured after 48 hrs by Annexin V-FITC/propidium iodide staining-based flow cytometry (reference value: 0.418%). Type of test: functional. For orientation: In flow cytometry, cells or beads pass a laser one at a time.
The test system of test [9] is HCT-116. Nature of the test: Induction of apoptosis in human HCT116 cells assessed as necrotic cells at 25 nM measured after 48 hrs by Annexin V-FITC/propidium iodide staining-based flow cytometry (reference value: 1.16%). Type of test: functional.
For test [10], the species on record is Homo sapiens. The test can be described thus: Inhibition of recombinant human BrSK2 S251I mutant (2 to end residues) assessed as residual activity at 10 uM using KKLNRTLSFAEPG as substrate measured after 40 mins in presence of [gamma33P]ATP by scintillation counting method.
The species entered for test [11] is Homo sapiens. Nature of the test: Inhibition of recombinant human Flt4 V1128L/H1146R mutant (800 to end residues) assessed as residual activity at 10 uM using GGEEEEYFELVKKKK as substrate measured after 40 mins in presence of [gamma33P]ATP by scintillation counting method.
Test [12] has as its system Tyrosine-protein kinase receptor UFO (Homo sapiens), P30530 [Q764R]. Nature of the test: Inhibition of recombinant human AXL Q764R mutant (473 to end residues) assessed as residual activity at 10 uM using KKSRGDYMTMQIG as substrate measured after 40 mins in presence of [gamma33P]ATP by scintillation counting method.
The target in test [13] is Death-associated protein kinase 3 (Homo sapiens) (UniProt O43293). Nature of the test: Inhibition of human ZIPK (1 to 290 residues) using KKLNRTLSFAEPG as substrate measured after 40 mins in presence of [gamma33P]ATP by scintillation counting method. Set-up: scale not given: the % may be the effect or the level left.
Test [14] concerns the target Aurora kinase B (Homo sapiens) (UniProt Q96GD4). The test can be described thus: Inhibition of recombinant full-length human AURKB assessed as residual activity at 10 uM using AKRRRLSSLRA as substrate measured after 40 mins in presence of [gamma33P]ATP by scintillation counting method.
The test system of test [15] is HCT-116. The test can be described thus: Cell cycle arrest in human HCT116 cells assessed as up regulation of CDK1 expression up to 150 nM after 24 hrs by Western blot analysis. The format is functional, cell-based.
Test [16] deals with Serine/threonine-protein kinase MARK2 (Homo sapiens) (UniProt Q7KZI7). Nature of the test: Inhibition of recombinant full-length human PAR1Balpha assessed as residual activity at 10 uM using KKKVSRSGLYRSPSMPENLNRPR as substrate measured after 40 mins in presence of [gamma33P]ATP by scintillation counting method.
For test [17], the system named is RAF proto-oncogene serine/threonine-protein kinase (Homo sapiens), P04049 [Y340D,Y341D]. The test can be described thus: Inhibition of recombinant human c-RAF Y340D/Y341D mutant (360 to end residues) assessed as residual activity at 10 uM using inactive MEK1 as substrate measured after 40 mins in presence of [gamma33P]ATP by scintillation counting method.
Test [18] has as its system A549. Nature of the test: cells. The settings on record: Homo sapiens, A549, 72 h.
Description: Antiproliferative activity against human A549 cells after 72 hrs by MTT assay
For test [19], the target named is Cyclin-dependent kinase 1/cyclin B1 (Homo sapiens) (UniProt P06493+P14635). The test can be described thus: Inhibition of recombinant full-length human CDK1/cyclinB assessed as residual activity at 10 uM using histone H1 as substrate measured after 40 mins in presence of [gamma33P]ATP by scintillation counting method. Type of test: protein-complex assay.
Test [20] has as its target Casein kinase I isoform gamma-1 (Homo sapiens) (UniProt Q9HCP0). The test can be described thus: Inhibition of recombinant human CK1gamma1 (25 to 355 residues) assessed as residual activity at 10 uM using KRRRALS(p)VASLPGL as substrate measured after 40 mins in presence of [gamma33P]ATP by scintillation counting method.
Test [21] deals with Ribosomal protein S6 kinase alpha-1 (Homo sapiens) (UniProt Q15418). Nature of the test: Inhibition of recombinant full-length human Rsk1 assessed as residual activity at 10 uM using KKKNRTLSVA as substrate measured after 40 mins in presence of [gamma33P]ATP by scintillation counting method.
The species named for test [22] is Homo sapiens. Nature of the test: Inhibition of recombinant human PRAK R291E mutant assessed as residual activity at 10 uM using KKLRRTLSVA as substrate measured after 40 mins in presence of [gamma33P]ATP by scintillation counting method.
Test [23] deals with DNA-dependent protein kinase catalytic subunit (Homo sapiens) (UniProt P78527). The test can be described thus: Inhibition of recombinant full-length human DNA-PK assessed as residual activity at 10 uM using GST-cMyc-p53 as substrate measured after 40 mins by fluorescence assay.
In test [24] the test system is Proto-oncogene tyrosine-protein kinase receptor Ret (Homo sapiens), P07949 [V804M]. Nature of the test: Inhibition of human Ret V804M mutant (658 to end residues) using […] as substrate measured after 40 mins in presence of [gamma33P]ATP by scintillation counting method. Set-up: scale not given: the % may be the effect or the level left.
Proto-oncogene tyrosine-protein kinase receptor Ret (Homo sapiens), P07949 [V804M], sequence (P07949 whole entry V804M): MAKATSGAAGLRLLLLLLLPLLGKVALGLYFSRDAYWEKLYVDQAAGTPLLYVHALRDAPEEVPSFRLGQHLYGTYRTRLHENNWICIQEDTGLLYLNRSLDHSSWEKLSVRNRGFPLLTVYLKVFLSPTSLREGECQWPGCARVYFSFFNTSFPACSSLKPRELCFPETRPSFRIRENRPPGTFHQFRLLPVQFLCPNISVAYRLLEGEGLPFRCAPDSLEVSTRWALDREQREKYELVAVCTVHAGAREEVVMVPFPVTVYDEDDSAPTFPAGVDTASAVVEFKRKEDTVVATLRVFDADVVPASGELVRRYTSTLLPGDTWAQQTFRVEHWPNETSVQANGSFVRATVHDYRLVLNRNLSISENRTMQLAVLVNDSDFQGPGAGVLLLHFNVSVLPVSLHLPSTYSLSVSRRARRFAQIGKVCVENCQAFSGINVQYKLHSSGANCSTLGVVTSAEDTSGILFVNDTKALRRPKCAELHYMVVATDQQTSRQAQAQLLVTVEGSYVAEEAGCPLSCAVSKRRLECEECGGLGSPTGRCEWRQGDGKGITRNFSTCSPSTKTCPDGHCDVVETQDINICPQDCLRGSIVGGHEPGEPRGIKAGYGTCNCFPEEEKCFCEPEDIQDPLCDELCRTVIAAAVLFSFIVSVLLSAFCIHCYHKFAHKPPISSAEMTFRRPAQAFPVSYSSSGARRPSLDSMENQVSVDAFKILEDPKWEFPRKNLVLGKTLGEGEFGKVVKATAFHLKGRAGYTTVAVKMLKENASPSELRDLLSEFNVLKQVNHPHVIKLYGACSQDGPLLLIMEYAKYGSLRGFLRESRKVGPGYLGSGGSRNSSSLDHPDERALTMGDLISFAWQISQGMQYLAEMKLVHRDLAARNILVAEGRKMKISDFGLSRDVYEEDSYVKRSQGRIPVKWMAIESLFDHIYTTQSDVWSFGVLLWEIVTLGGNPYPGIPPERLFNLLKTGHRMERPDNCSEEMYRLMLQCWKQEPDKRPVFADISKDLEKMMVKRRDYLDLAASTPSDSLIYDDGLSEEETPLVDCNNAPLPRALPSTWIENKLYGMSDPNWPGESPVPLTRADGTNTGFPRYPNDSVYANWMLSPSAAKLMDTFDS

Ribosomal protein S6 kinase alpha-1 (Homo sapiens), sequence (Q15418 whole entry): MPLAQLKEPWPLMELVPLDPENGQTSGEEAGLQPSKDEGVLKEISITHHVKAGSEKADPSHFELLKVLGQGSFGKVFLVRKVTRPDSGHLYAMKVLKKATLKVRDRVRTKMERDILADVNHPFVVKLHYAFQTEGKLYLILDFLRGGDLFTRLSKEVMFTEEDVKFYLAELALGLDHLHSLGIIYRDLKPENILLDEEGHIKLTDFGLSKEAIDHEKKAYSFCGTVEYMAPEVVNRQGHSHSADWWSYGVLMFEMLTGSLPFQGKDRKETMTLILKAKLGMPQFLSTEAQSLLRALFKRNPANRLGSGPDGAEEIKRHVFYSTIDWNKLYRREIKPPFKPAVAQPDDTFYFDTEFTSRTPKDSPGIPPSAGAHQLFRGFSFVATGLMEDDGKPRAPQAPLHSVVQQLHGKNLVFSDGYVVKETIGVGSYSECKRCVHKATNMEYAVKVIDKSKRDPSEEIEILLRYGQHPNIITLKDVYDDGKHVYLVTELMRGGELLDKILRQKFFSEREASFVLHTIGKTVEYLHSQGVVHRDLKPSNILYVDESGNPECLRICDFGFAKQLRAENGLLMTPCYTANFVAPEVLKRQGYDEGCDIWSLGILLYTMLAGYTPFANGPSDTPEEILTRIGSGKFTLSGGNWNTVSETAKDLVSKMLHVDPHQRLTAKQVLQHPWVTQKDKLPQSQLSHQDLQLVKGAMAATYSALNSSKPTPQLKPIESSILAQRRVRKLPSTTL
Serine/threonine-protein kinase MARK2 (Homo sapiens), sequence (Q7KZI7 whole entry): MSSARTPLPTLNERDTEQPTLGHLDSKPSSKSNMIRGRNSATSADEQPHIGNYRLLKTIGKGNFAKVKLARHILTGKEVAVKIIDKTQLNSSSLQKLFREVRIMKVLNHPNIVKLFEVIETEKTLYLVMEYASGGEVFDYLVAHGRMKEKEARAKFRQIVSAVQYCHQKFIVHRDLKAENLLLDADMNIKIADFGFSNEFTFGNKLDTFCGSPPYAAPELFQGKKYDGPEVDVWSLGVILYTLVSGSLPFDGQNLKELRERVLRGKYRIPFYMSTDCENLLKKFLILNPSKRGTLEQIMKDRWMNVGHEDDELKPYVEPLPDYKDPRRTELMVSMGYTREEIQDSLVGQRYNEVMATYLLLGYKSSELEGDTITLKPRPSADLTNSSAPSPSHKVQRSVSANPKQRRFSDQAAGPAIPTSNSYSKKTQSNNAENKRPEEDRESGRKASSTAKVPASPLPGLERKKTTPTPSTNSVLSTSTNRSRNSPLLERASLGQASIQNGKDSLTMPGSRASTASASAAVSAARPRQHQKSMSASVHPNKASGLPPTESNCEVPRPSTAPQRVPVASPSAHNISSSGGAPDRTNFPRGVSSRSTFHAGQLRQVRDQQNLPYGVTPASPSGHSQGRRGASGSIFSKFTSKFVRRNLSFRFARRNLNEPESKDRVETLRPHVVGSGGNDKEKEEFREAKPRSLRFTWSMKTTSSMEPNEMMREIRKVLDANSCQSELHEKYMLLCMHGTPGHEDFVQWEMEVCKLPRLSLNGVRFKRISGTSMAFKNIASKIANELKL
Casein kinase I isoform gamma-1 (Homo sapiens), sequence (Q9HCP0 whole entry, looked up, the tested form may be a part, canonical isoform): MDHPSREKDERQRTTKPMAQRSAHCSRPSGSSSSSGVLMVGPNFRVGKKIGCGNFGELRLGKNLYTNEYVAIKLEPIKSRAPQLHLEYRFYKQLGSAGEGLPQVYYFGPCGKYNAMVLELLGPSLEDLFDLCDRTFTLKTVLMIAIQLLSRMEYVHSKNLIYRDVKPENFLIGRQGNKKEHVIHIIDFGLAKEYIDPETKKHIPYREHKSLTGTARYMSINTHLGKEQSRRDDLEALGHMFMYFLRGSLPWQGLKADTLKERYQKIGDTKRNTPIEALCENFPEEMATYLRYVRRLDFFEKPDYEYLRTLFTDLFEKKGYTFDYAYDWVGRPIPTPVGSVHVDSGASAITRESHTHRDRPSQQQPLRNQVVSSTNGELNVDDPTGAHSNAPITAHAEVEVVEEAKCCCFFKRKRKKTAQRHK
Cyclin-dependent kinase 1/cyclin B1 (Homo sapiens), sequence (P06493 whole entry, looked up, the tested form may be a part, canonical isoform): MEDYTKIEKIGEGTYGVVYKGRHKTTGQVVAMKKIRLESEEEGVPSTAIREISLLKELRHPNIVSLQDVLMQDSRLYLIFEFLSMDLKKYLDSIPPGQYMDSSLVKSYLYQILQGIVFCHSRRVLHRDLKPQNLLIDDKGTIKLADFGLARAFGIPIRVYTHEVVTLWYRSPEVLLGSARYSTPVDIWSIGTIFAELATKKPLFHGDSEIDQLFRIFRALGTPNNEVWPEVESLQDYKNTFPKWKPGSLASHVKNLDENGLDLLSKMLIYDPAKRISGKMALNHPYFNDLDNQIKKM
Cyclin-dependent kinase 1/cyclin B1 (Homo sapiens), sequence (P14635 whole entry, looked up, the tested form may be a part, canonical isoform): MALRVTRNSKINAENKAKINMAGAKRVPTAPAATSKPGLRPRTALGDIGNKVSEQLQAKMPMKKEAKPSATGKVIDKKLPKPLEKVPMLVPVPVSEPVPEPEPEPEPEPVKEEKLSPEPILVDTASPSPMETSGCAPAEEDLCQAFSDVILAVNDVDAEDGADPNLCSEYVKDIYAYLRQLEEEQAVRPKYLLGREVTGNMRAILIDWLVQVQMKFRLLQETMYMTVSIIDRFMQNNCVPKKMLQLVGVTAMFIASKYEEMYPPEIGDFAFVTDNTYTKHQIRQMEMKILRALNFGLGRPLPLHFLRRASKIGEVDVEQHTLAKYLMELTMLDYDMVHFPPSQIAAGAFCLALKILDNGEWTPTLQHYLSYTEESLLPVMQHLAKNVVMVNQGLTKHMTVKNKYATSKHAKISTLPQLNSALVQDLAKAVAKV
Death-associated protein kinase 3 (Homo sapiens), sequence (O43293 whole entry, looked up, the tested form may be a part): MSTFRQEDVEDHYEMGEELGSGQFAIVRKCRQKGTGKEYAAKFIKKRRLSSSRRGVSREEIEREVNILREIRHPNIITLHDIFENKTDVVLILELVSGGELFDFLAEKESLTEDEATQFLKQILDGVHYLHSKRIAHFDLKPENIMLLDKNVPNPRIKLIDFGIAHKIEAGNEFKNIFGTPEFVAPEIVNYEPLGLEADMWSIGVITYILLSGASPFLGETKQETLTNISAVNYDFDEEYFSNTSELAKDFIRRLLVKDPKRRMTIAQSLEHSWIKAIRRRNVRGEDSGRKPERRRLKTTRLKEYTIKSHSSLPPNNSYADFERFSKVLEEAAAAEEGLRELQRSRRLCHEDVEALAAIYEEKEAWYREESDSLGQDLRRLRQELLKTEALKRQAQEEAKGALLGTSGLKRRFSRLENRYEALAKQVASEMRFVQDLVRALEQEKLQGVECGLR
Dual specificity mitogen-activated protein kinase kinase 2 (Homo sapiens), sequence (P36507 whole entry, the tested form may be a part): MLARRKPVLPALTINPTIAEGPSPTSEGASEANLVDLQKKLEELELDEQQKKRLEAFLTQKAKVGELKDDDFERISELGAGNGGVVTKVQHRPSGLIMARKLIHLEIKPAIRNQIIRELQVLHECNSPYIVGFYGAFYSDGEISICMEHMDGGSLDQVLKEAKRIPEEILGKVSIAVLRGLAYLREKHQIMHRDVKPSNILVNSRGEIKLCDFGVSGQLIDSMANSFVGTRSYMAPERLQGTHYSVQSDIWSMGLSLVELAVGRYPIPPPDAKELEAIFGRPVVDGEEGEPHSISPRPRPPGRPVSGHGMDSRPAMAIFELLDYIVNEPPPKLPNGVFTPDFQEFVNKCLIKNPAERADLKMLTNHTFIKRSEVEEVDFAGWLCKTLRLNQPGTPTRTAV
Testis-specific serine/threonine-protein kinase 2 (Homo sapiens), sequence (Q96PF2 whole entry, the tested form may be a part): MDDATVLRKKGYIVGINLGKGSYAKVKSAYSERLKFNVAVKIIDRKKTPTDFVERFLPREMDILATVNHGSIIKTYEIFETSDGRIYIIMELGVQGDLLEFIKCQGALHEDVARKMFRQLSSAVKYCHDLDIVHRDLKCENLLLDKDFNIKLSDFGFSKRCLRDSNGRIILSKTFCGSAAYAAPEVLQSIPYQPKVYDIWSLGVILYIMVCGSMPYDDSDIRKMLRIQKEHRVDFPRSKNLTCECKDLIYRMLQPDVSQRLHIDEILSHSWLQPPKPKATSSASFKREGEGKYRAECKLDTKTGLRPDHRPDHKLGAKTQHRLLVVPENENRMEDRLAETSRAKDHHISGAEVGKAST

As for `Cc1cc(C)c(CNc2nc(Cl)nc3c2ncn3C2CCCC2)c(=O)[nH]1`, the Activity was found to be 98.5% in test [1]; 117% in test [2]; 106% in test [3]; 102% in [4]; 98.5% in test [5]; 109% in [6]. The Activity in [7] amounted to 91%; in test [8] it was 3.57%; in test [9] it was 0.846%; in test [10] it was 123%; in test [11] it was 104%; in [12], 107%. For the same molecule, the Activity in test [13] turned out to be 110%; in test [14] it was 143%; in test [16], 95.5%; in [17], 96.5%; in [19] it was 102%; in [20], 94.5%. Moreover, the Activity is 112% in test [21], 125% in [22], 99% in test [23] and 106% in test [24]. The result in test [15] was Active. This molecule came in with an IC50 in [18] of 100 nM.

The record behind these values is ChEMBL document CHEMBL4311992, “Discovery of 3-(((9H-purin-6-yl)amino)methyl)-4,6-dimethylpyridin-2(1H)-one derivatives as novel tubulin polymerization inhibitors for treatment of cancer” (Eur J Med Chem, 2019).
